Test results taken from patent US20110162116A1, “Method For Growing Plants” (priority 2008, published 2011).

Tested on: Cotton
Test: Total dark respiration and SHAM-sensitive AOX by phase shift fluorescence measurement, cotton leaf sections
Assay type: in vivo, Gossypium spp.
Text: Ozone control. Ozone generators (model OP-35-3P, Grupo Interozone, Brazil) were coupled to ozone monitors (model 202, 2B Technologies, Inc. USA; dynamic range of 1.5 ppbv to 100 ppmv of ozone; precision 1.5 ppbv or 2% of the reading) using a ozone monitor—generator interface (Engineering dep. Crops Advance Brazil). […] This was used as the upper limit for phytotron number one. Phytotron number two was set at 30 ppbv average ozone. Phytotron number three was set at 60 ppbv average ozone. Ozone levels of phytotron number two and three were permanently measured at 10 second intervals and averaged per minute. Each ozone monitor fed averaged values over an analog output to an ozone monitor—ozone generator interface. Hysteresis was set at +/−5 ppbv. Ozone levels were monitored close to the inlet of the two internal circulation ventilators. The ozone generators were adapted to accept an external digital signal from the interface.
Respiration of plant material was tested as follows: Partial oxygen pressure drops due to oxygen consumption as result of dark respiration were measured using phase shift fluorescence measurement. For this, a NeoFox™ Phase Measurement System was used (Fluorometer Bench version using a QBIF600-VIS-NIR laboratory-grade bifurcated optical fiber with FOXY-R-8 cm overcoated fluorescence oxygen needle sensor, Ocean Optics Inc. USA).
Fluorescence phase shift was expressed as Tau in microseconds (μs) and has an inverse and linear relation with the partial oxygen pressure.
Salicylhydroxamic acid (SHAM) (99%, Sigma-Aldrich Brasil Ltda. São Paulo, Brazil) was used as an AOX inhibitor. The soluble sodium salicylhydroxamate salt was prepared by titrating SHAM with 0.1 M sodium hydroxide until neural pH. A stock solution ([…]) was prepared containing 300 ml/L ethanol from initial dissolving SHAM (same abbreviation is used for the salicylhydroxamate salt). From the stock solution a 20 mmol/L salicylhydroxamate final test solution was prepared by taking 12.3 ml stock solution and completing till 100 ml with a phosphate buffer solution (pH 7). The final SHAM test solution thus contained 3.7% residual ethanol. For proper control, the comparative test solution was also provided with 3.7 ml of ethanol per 100 ml of phosphate buffer solution (pH 7). To both solutions two drops of wetting agent (Silwet L-77 AG, GE Silicones Inc. USA) were added per 25 ml of test solution.
Plant material collected was always the first fully grown leaf counting from the apical point downwards or outwards (e.g. for monocotyls). […] Per test, four leafs from four different plants were sampled. Cotton leafs were cut in half along the mid nerve. Using a clipper, 16 leaf sections of equal surface area of 400.9 mm2 each were cut, one from each base half and one from each top half part giving 4 sections per leaf and 16 sections per test. The leaf sections were distributed equally over two sub samples, one with and one without salicylhydroxamate. Using a chirurgical blade, all sections were given 7 parallel cuts (through and through) at approximately 2.5 mm apart over almost the full length of the section to guarantee lateral infiltration of the test solutions and gas exchange.
Within 10 minutes of plant sampling the sections were cut, initial subsample weight was registered using a high precision laboratory scale and the subsamples were placed in their solutions with and without salicylhydroxamate for 60 minutes in the dark, to guarantee dark adaptation.
Each sample contained 4 leaves, 4 sections per leaf providing 16 sections, 8 per subsample. In 1 subsample of 8 sections AOX was inhibited, the other subsample served as control. Thereafter each subsample material was tissue dried and stacked using filter paper sections cut with the same clipper to separate individual leaf sections. Each subsample consisted of 9 filter sections and 8 leaf sections. […]

[1] = plants grown in 0 ppvb O3, transferred to 60 ppvb O3 and transferred back to 0 ppvb O3
[2] = plants grown in 0 ppvb O3 and transferred to 30 ppvb O3
[3] = plants grown in 0 ppvb O3 and transferred to 60 ppvb O3
[4] = plants grown in 60 ppvb O3 and transferred to 0 ppvb O3

O=[O+][O-] [ozone]
time for AOX respiration rate to fully return to base level when the oxidative stress is reduced (cotton, after exposure to higher ozone levels than in ontogenic phase): ≤ 3 days
AOX respiration after return to the 0 ppbv ozone ambient (in words) (ontogenic phase in 0 ppbv, time in 60 ppbv ozone ambient, returned to 0 ppbv): returned fully to its initial level
AOX component [1]: 2.95 arb units
TDR excl AOX dTau/t without SHAM [1]: 8.87E−06 μs/s
TDR incl AOX dTau/t with SHAM [1]: 1.18E−05 μs/s
AOX component [2]: 3.26 arb units
TDR excl AOX dTau/t without SHAM [2]: 7.51E−06 μs/s
TDR incl AOX dTau/t with SHAM [2]: 1.08E−05 μs/s
AOX component [3]: 3.77 arb units
TDR excl AOX dTau/t without SHAM [3]: 5.75E−06 μs/s
TDR incl AOX dTau/t with SHAM [3]: 9.52E−06 μs/s
AOX component (plants grown in 30 ppvb O3): 2.97 arb units
TDR excl AOX dTau/t without SHAM (plants grown in 30 ppvb O3): 6.96E−06 μs/s
TDR incl AOX dTau/t with SHAM (plants grown in 30 ppvb O3): 9.93E−06 μs/s
AOX component (plants grown in 60 ppvb O3): 3.33 arb units
TDR excl AOX dTau/t without SHAM (plants grown in 60 ppvb O3): 6.03E−06 μs/s
TDR incl AOX dTau/t with SHAM (plants grown in 60 ppvb O3): 9.36E−06 μs/s
AOX component [4]: 3.97 arb units
TDR excl AOX dTau/t without SHAM [4]: 7.13E−06 μs/s
TDR incl AOX dTau/t with SHAM [4]: 1.11E−05 μs/s
AOX respiration during stay in the zero ozone level ambient (in words) (plants grown up in 60 ppbv ozone, placed in zero ozone ambient): did not lower their AOX respiration
